According to ChEMBL document CHEMBL1240393, “Full Resistance and decreased susceptibility to carbapenems in IMP-13-producing Pseudomonas aeruginosa isolates from an outbreak” (2010):
Values after ≈ are worked out from the molar mass of the structure shown.

How the values were obtained:
Pseudomonas aeruginosa [1] = experiment: Antibacterial activity against beta-lactamase IMP-13 producing Pseudomonas aeruginosa isolate 3; type: functional
Pseudomonas aeruginosa [2] = experiment: Antibacterial activity against beta-lactamase IMP-13 producing Pseudomonas aeruginosa isolate 6
Pseudomonas aeruginosa [3] = experiment: Antibacterial activity against beta-lactamase IMP-13 producing Pseudomonas aeruginosa isolate 9 assessed as zone of inhibition by disk diffusion assay; type: functional
Pseudomonas aeruginosa [4] = experiment: Antibacterial activity against beta-lactamase IMP-13 producing Pseudomonas aeruginosa isolate 15; type: functional
Pseudomonas aeruginosa [5] = experiment: Antibacterial activity against beta-lactamase IMP-13 producing Pseudomonas aeruginosa isolate 1; type: functional
Pseudomonas aeruginosa [6] = experiment: Antibacterial activity against beta-lactamase IMP-13 producing Pseudomonas aeruginosa isolate 10 assessed as zone of inhibition by disk diffusion assay; type: functional
Pseudomonas aeruginosa [7] = experiment: Antibacterial activity against beta-lactamase IMP-13 producing Pseudomonas aeruginosa isolate 7 assessed as zone of inhibition by disk diffusion assay; type: functional
Pseudomonas aeruginosa [8] = experiment: Antibacterial activity against beta-lactamase IMP-13 producing Pseudomonas aeruginosa isolate 11 assessed as zone of inhibition by disk diffusion assay; type: functional
Pseudomonas aeruginosa [9] = experiment: Antibacterial activity against beta-lactamase IMP-13 producing Pseudomonas aeruginosa isolate 5 assessed as zone of inhibition by disk diffusion assay; type: functional
Pseudomonas aeruginosa [10] = experiment: Antibacterial activity against beta-lactamase IMP-13 producing Pseudomonas aeruginosa isolate 1 assessed as zone of inhibition by disk diffusion assay; type: functional
Pseudomonas aeruginosa [11] = experiment: Antibacterial activity against beta-lactamase IMP-13 producing Pseudomonas aeruginosa isolate 18
Pseudomonas aeruginosa [12] = experiment: Antibacterial activity against beta-lactamase IMP-13 producing Pseudomonas aeruginosa isolate 2; type: functional
Pseudomonas aeruginosa [13] = experiment: Antibacterial activity against beta-lactamase IMP-13 producing Pseudomonas aeruginosa isolate 9
Pseudomonas aeruginosa [14] = experiment: Antibacterial activity against beta-lactamase IMP-13 producing Pseudomonas aeruginosa isolate 13 assessed as zone of inhibition by disk diffusion assay; type: functional
Pseudomonas aeruginosa [15] = experiment: Antibacterial activity against beta-lactamase IMP-13 producing Pseudomonas aeruginosa isolate 8; type: functional
Pseudomonas aeruginosa [16] = experiment: Antibacterial activity against beta-lactamase IMP-13 producing Pseudomonas aeruginosa isolate 7; type: functional
Pseudomonas aeruginosa [17] = experiment: Antibacterial activity against beta-lactamase IMP-13 producing Pseudomonas aeruginosa isolate 16 assessed as zone of inhibition by disk diffusion assay; type: functional
Pseudomonas aeruginosa [18] = experiment: Antibacterial activity against beta-lactamase IMP-13 producing Pseudomonas aeruginosa isolate 12; type: functional
Pseudomonas aeruginosa [19] = experiment: Antibacterial activity against beta-lactamase IMP-13 producing Pseudomonas aeruginosa isolate 4 assessed as zone of inhibition by disk diffusion assay; type: functional
Pseudomonas aeruginosa [20] = experiment: Antibacterial activity against beta-lactamase IMP-13 producing Pseudomonas aeruginosa isolate 12 assessed as zone of inhibition by disk diffusion assay; type: functional
Pseudomonas aeruginosa [21] = experiment: Antibacterial activity against beta-lactamase IMP-13 producing Pseudomonas aeruginosa isolate 15 assessed as zone of inhibition by disk diffusion assay; type: functional
Pseudomonas aeruginosa [22] = experiment: Antibacterial activity against beta-lactamase IMP-13 producing Pseudomonas aeruginosa isolate 14; type: functional
Pseudomonas aeruginosa [23] = experiment: Antibacterial activity against beta-lactamase IMP-13 producing Pseudomonas aeruginosa isolate 10; type: functional
Pseudomonas aeruginosa [24] = experiment: Antibacterial activity against beta-lactamase IMP-13 producing Pseudomonas aeruginosa isolate 17
Pseudomonas aeruginosa [25] = experiment: Antibacterial activity against beta-lactamase IMP-13 producing Pseudomonas aeruginosa isolate 18 assessed as zone of inhibition by disk diffusion assay; type: functional
Pseudomonas aeruginosa [26] = experiment: Antibacterial activity against beta-lactamase IMP-13 producing Pseudomonas aeruginosa isolate 4; type: functional
Pseudomonas aeruginosa [27] = experiment: Antibacterial activity against beta-lactamase IMP-13 producing Pseudomonas aeruginosa isolate 16; type: functional
Pseudomonas aeruginosa [28] = experiment: Antibacterial activity against beta-lactamase IMP-13 producing Pseudomonas aeruginosa isolate 11; type: functional
Pseudomonas aeruginosa [29] = experiment: Antibacterial activity against beta-lactamase IMP-13 producing Pseudomonas aeruginosa isolate 2 assessed as zone of inhibition by disk diffusion assay; type: functional
Pseudomonas aeruginosa [30] = experiment: Antibacterial activity against beta-lactamase IMP-13 producing Pseudomonas aeruginosa isolate 13; type: functional
Pseudomonas aeruginosa [31] = experiment: Antibacterial activity against beta-lactamase IMP-13 producing Pseudomonas aeruginosa isolate 3 assessed as zone of inhibition by disk diffusion assay; type: functional
Pseudomonas aeruginosa [32] = experiment: Antibacterial activity against beta-lactamase IMP-13 producing Pseudomonas aeruginosa isolate 6 assessed as zone of inhibition by disk diffusion assay; type: functional
Pseudomonas aeruginosa [33] = experiment: Antibacterial activity against beta-lactamase IMP-13 producing Pseudomonas aeruginosa isolate 17 assessed as zone of inhibition by disk diffusion assay; type: functional
Pseudomonas aeruginosa [34] = experiment: Antibacterial activity against beta-lactamase IMP-13 producing Pseudomonas aeruginosa isolate 14 assessed as zone of inhibition by disk diffusion assay; type: functional
Pseudomonas aeruginosa [35] = experiment: Antibacterial activity against beta-lactamase IMP-13 producing Pseudomonas aeruginosa isolate 8 assessed as zone of inhibition by disk diffusion assay; type: functional
Pseudomonas aeruginosa [36] = experiment: Antibacterial activity against beta-lactamase IMP-13 producing Pseudomonas aeruginosa isolate 5; type: functional

## C[C@@H](O)[C@H]1C(=O)N2C(C(=O)O)=C(SCCNC=N)C[C@H]12 [IMIPENEM ANHYDROUS]
Pseudomonas aeruginosa [1]
  MIC: 2 µg/mL (≈ 6.68 µM)
Pseudomonas aeruginosa [2]
  MIC: 2 µg/mL (≈ 6.68 µM)
Pseudomonas aeruginosa [3]
  inhibition zone (IZ): 18 mm
Pseudomonas aeruginosa [4]
  MIC: 32 µg/mL (≈ 107 µM)
Pseudomonas aeruginosa [5]
  MIC: 4 µg/mL (≈ 13.4 µM)
Pseudomonas aeruginosa [6]
  inhibition zone (IZ): 21 mm
Pseudomonas aeruginosa [7]
  inhibition zone (IZ): 21 mm
Pseudomonas aeruginosa [8]
  inhibition zone (IZ): 21 mm
Pseudomonas aeruginosa [9]
  inhibition zone (IZ): 21 mm
Pseudomonas aeruginosa [10]
  inhibition zone (IZ): 20 mm
Pseudomonas aeruginosa [11]
  MIC: 2 µg/mL (≈ 6.68 µM)
Pseudomonas aeruginosa [12]
  MIC: 2 µg/mL (≈ 6.68 µM)
Pseudomonas aeruginosa [13]
  MIC: 2 µg/mL (≈ 6.68 µM)
Pseudomonas aeruginosa [14]
  inhibition zone (IZ): 6 mm
Pseudomonas aeruginosa [15]
  MIC: 2 µg/mL (≈ 6.68 µM)
Pseudomonas aeruginosa [16]
  MIC: 2 µg/mL (≈ 6.68 µM)
Pseudomonas aeruginosa [17]
  inhibition zone (IZ): 6 mm
Pseudomonas aeruginosa [18]
  MIC: 4 µg/mL (≈ 13.4 µM)
Pseudomonas aeruginosa [19]
  inhibition zone (IZ): 21 mm
Pseudomonas aeruginosa [20]
  inhibition zone (IZ): 18 mm
Pseudomonas aeruginosa [21]
  inhibition zone (IZ): 7 mm
Pseudomonas aeruginosa [22]
  MIC: 32 µg/mL (≈ 107 µM)
Pseudomonas aeruginosa [23]
  MIC: 2 µg/mL (≈ 6.68 µM)
Pseudomonas aeruginosa [24]
  MIC: 2 µg/mL (≈ 6.68 µM)
Pseudomonas aeruginosa [25]
  inhibition zone (IZ): 21 mm
Pseudomonas aeruginosa [26]
  MIC: 2 µg/mL (≈ 6.68 µM)
Pseudomonas aeruginosa [27]
  MIC: 32 µg/mL (≈ 107 µM)
Pseudomonas aeruginosa [28]
  MIC: 2 µg/mL (≈ 6.68 µM)
Pseudomonas aeruginosa [29]
  inhibition zone (IZ): 21 mm
Pseudomonas aeruginosa [30]
  MIC: 32 µg/mL (≈ 107 µM)
Pseudomonas aeruginosa [31]
  inhibition zone (IZ): 20 mm
Pseudomonas aeruginosa [32]
  inhibition zone (IZ): 20 mm
Pseudomonas aeruginosa [33]
  inhibition zone (IZ): 20 mm
Pseudomonas aeruginosa [34]
  inhibition zone (IZ): 6 mm
Pseudomonas aeruginosa [35]
  inhibition zone (IZ): 21 mm
Pseudomonas aeruginosa [36]
  MIC: 2 µg/mL (≈ 6.68 µM)

## C[C@@H](O)[C@H]1C(=O)N2C(C(=O)O)=C(S[C@@H]3CN[C@H](C(=O)N(C)C)C3)[C@H](C)[C@H]12 [MEROPENEM]
Pseudomonas aeruginosa [1]
  MIC: 4 µg/mL (≈ 10.4 µM)
Pseudomonas aeruginosa [2]
  MIC: 2 µg/mL (≈ 5.22 µM)
Pseudomonas aeruginosa [3]
  inhibition zone (IZ): 19 mm
Pseudomonas aeruginosa [4]
  MIC: 128 µg/mL (≈ 334 µM)
Pseudomonas aeruginosa [5]
  MIC: 4 µg/mL (≈ 10.4 µM)
Pseudomonas aeruginosa [6]
  inhibition zone (IZ): 20 mm
Pseudomonas aeruginosa [7]
  inhibition zone (IZ): 17 mm
Pseudomonas aeruginosa [8]
  inhibition zone (IZ): 19 mm
Pseudomonas aeruginosa [9]
  inhibition zone (IZ): 17 mm
Pseudomonas aeruginosa [10]
  inhibition zone (IZ): 18 mm
Pseudomonas aeruginosa [11]
  MIC: 2 µg/mL (≈ 5.22 µM)
Pseudomonas aeruginosa [12]
  MIC: 4 µg/mL (≈ 10.4 µM)
Pseudomonas aeruginosa [13]
  MIC: 2 µg/mL (≈ 5.22 µM)
Pseudomonas aeruginosa [14]
  inhibition zone (IZ): 6 mm
Pseudomonas aeruginosa [15]
  MIC: 4 µg/mL (≈ 10.4 µM)
Pseudomonas aeruginosa [16]
  MIC: 4 µg/mL (≈ 10.4 µM)
Pseudomonas aeruginosa [17]
  inhibition zone (IZ): 6 mm
Pseudomonas aeruginosa [18]
  MIC: 8 µg/mL (≈ 20.9 µM)
Pseudomonas aeruginosa [19]
  inhibition zone (IZ): 21 mm
Pseudomonas aeruginosa [20]
  inhibition zone (IZ): 17 mm
Pseudomonas aeruginosa [21]
  inhibition zone (IZ): 6 mm
Pseudomonas aeruginosa [22]
  MIC: 128 µg/mL (≈ 334 µM)
Pseudomonas aeruginosa [23]
  MIC: 4 µg/mL (≈ 10.4 µM)
Pseudomonas aeruginosa [24]
  MIC: 2 µg/mL (≈ 5.22 µM)
Pseudomonas aeruginosa [25]
  inhibition zone (IZ): 21 mm
Pseudomonas aeruginosa [26]
  MIC: 4 µg/mL (≈ 10.4 µM)
Pseudomonas aeruginosa [27]
  MIC: 128 µg/mL (≈ 334 µM)
Pseudomonas aeruginosa [28]
  MIC: 4 µg/mL (≈ 10.4 µM)
Pseudomonas aeruginosa [29]
  inhibition zone (IZ): 17 mm
Pseudomonas aeruginosa [30]
  MIC: 128 µg/mL (≈ 334 µM)
Pseudomonas aeruginosa [31]
  inhibition zone (IZ): 16 mm
Pseudomonas aeruginosa [32]
  inhibition zone (IZ): 16 mm
Pseudomonas aeruginosa [33]
  inhibition zone (IZ): 20 mm
Pseudomonas aeruginosa [34]
  inhibition zone (IZ): 6 mm
Pseudomonas aeruginosa [35]
  inhibition zone (IZ): 21 mm
Pseudomonas aeruginosa [36]
  MIC: 4 µg/mL (≈ 10.4 µM)
